Measurements as given in patent US20250214966A1, “Crystalline Salt Form Of A SHP2 Inhibitor” (Array BioPharma Inc., priority 2022, published 2025).
Where a name gives a salt, the structure may show the parent alone.

What was measured:
Format in all cases: physicochemical
[1] = Photostability (2xICH), HPLC
Source text: Photostability (Table 12): Sample preparation: Control—about 1 g of sample was transferred into a weighting bottle and covered with a glass cover. The sample was wrapped in aluminum foil to protect from light and placed into the photostability chamber. Photostability sample: about 1 g of sample was transferred into a weighing bottle, then placed into the photostability chamber. Storage conditions: The photostability samples were stored according to ICH Photostability Option 2: A cool white fluorescent lamp designed to produce an output similar to that specified in ISO 10977 (1993), a near UV fkuorescent lamp having a spectral distribution from 320 nm to 400 nm with a maximum energy emission between 350 nm and 370 nm; a significant portion of UV should be in both bands of 320 to 360 nm and 360 to 400 nm. The photo stability and dark control samples were exposed to the light equipment providing photo intensity if 5000±500 Lx (near ultraviolet energy 0.84 W/m^2±10%) and irradiated for 12 days (samples exposed to light providing an overall illumination of not less than 1.2 million lux hours and an integrated near UV energy of not less than 200 watt hours/quare meter).
Photostability (HPLC) (Table 12): An Agilent 1100 HPLC was used with a Waters XSelect HSS T3 Column (100 angstrom, 4.6×150 mm, 5 μm). The column temperature was set to 20° C., the UV wavelength set to 254 nm, the injection volume was 10 μL, with a flow rate of 1.0 mL/min. 10 mM ammonium acetate adjusted to pH 4.8 was used as a mobile phase A, and acetonitrile was used as mobile phase B. The gradient method was set up to achieve 15% mobile phase B at 0 minutes, 95% mobile phase B at 17 minutes—held until 22 minutes, 15% mobile phase. […]
Physical (PXRD) (Table 13): Powder X-ray diffraction analysis was conducted using a Bruker AXS D8 Endeavor diffractometer equipped with a Cu radiation source. […] Diffracted radiation was detected by a PSD-Lynx Eye detector, with the detector PSD opening set at 2.99 degrees. […]

[2] = Physical stability (PXRD) after storage at 70° C.
Description: Physical Stability (PXRD) (Table 12): Powder X-ray diffraction analysis was conducted using a Bruker AXS D8 Endeavor diffractometer equipped with a Cu radiation source. The divergence slit was set at 10 mm continuous illumination. Diffracted radiation was detected by a PSD-Lynx Eye detector, with the detector PSD opening set at 2.99 degrees. The X-ray tube voltage and amperage were set to 40 kV and 40 mA respectively. Data was collected in the Theta-Theta goniometer at the Cu wavelength from 3.0 to 40.0 degrees 2-Theta using a step size of 0.02 degrees and a step time of 0.3 second. The antiscatter screen was set to a fixed distance of 1.5 mm. Samples were rotated at 15/min during collection. Samples were prepared by placing them in a silicon low background sample holder and rotated during collection. Data were collected using Bruker DIFFRAC Plus software and analysis was performed by EVA diffract plus software. A Small divot sample holder was used.
Physical Stability (PXRD) (Table 13): The Rigaku MiniFlex 6G Diffractometer used is equipped with a Cu radiation source. Diffracted radiation was detected by a D/teX Ultra2 detector. The X-ray tube voltage and amperages were set to 40 kV and 15 mA respectively. Data was collected in the Miniflex goniometer at the Cu wavelength from 3.0 to 45.0° 20 using a step width of 0.02° and a step speed of 2.00°/minute. The incident slit box was set to 1.25° and the length limiting slit was set at 10 mm. The sample was rotated at 10 RPM during collection. The data was analyzed using Rigaku software SmartLab Studio II.
The sample was prepared by placement into a silicon low background sample holder (0.2 indent plate). The sample was confirmed to be level and packed prior to measurement. The sample was not ground (by mortar and pestle, or by any other means) prior to placement in the sample holder.

[3] = Grinding assessment of form and crystallinity
[4] = 70° C./75% RH, first of two lines so headed
[5] = printed 70° C./75% RH, second of two lines so headed

Structure (SMILES)	Photostability (2xICH), photodeg RRT 1.16 [1] [%]	Photostability (2xICH), photodeg RRT 1.62 [1] [%]	Physical Stability (70° C./75% RH) [2, 4]	Physical Stability (70° C./75% RH) [2, 5]	Grinding Assessment [3]	Photostability (2xICH), decrease in purity [1] [% decrease in purity]
Nc1nccc(Sc2cnc(N3CCC4(CC3)Cc3ccccc3[C@H]4N)nn2)c1Cl.Nc1nccc(Sc2cnc(N3CCC4(CC3)Cc3ccccc3[C@H]4N)nn2)c1Cl.O [Example 2, (S)-1′-(6-((2-amino-3-chloropyridin-4-yl)thio)-1,2,4-triazin-3-yl)-1,3-dihydrospiro[indene-2,4′-piperidin]-1-amine Free Base Hemihydrate (Form 1)]	~0.36	~0.32	No change	No change	No change in form or crystallinity	
Nc1nccc(Sc2cnc(N3CCC4(CC3)Cc3ccccc3[C@H]4N)nn2)c1Cl [Example 3, (S)-1′-(6-((2-amino-3-chloropyridin-4-yl)thio)-1,2,4-triazin-3-yl)-1,3-dihydrospiro[indene-2,4′-piperidin]-1-amine Mono Succinate Salt Form 1]			No change	No change	Reduction in crystallinity	0.53
